{"source": "ChEMBL document CHEMBL5113460", "about": "“Discovery of dual inhibitors of topoisomerase I and Cyclooxygenase-2 for colon cancer therapy” (Eur J Med Chem, 2022)", "key": {"[1]": {"target": "T1, DNA topoisomerase 1 (Homo sapiens) (UniProt P11387)", "T1 sequence (whole entry)": "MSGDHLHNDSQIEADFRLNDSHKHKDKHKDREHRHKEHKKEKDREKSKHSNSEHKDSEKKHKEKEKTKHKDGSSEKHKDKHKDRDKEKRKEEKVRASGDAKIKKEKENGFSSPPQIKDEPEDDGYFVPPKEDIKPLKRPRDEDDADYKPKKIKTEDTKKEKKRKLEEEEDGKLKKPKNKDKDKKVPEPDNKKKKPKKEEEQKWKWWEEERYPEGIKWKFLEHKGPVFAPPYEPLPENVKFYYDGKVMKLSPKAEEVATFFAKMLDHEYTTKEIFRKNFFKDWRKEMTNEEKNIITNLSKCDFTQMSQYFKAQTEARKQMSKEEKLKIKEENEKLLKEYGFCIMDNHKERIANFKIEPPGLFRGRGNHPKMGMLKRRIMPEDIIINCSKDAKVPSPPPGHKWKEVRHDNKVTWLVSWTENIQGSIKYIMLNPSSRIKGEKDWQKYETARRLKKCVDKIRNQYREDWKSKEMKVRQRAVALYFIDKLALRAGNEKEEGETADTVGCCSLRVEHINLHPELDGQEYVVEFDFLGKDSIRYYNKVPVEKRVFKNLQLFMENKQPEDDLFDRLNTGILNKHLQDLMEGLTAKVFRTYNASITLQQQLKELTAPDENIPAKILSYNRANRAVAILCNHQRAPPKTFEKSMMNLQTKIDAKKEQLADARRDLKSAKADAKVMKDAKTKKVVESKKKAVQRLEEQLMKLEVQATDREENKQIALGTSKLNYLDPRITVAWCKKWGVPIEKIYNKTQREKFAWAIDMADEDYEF", "test": "Inhibition of topoisomerase 1 (unknown origin) assessed as relaxation of supercoiled plasmid pBR322 DNA at 10 uM incubated for 45 mins by ethidium bromide staining based agarose gel electrophoresis"}, "[2]": {"target": "T1, DNA topoisomerase 1 (Homo sapiens)", "test": "Inhibition of topoisomerase 1 (unknown origin) assessed as relaxation of supercoiled plasmid pBR322 DNA at 1 uM incubated for 45 mins by ethidium bromide staining based agarose gel electrophoresis"}, "HT-29 [3]": {"test_system": "HT-29", "test": "Antitumor activity against human HT-29 cells assessed as inhibition of cell proliferation incubated for 72 hrs by MTT assay", "assay_type": "functional, cell-based", "conditions": "HT-29, 72 h"}, "RKO [4]": {"test_system": "RKO", "test": "Antitumor activity against human RKO cells assessed as inhibition of cell proliferation incubated for 72 hrs by MTT assay", "assay_type": "functional, cell-based"}, "LoVo": {"test_system": "LoVo", "test": "Antitumor activity against human LoVo cells assessed as inhibition of cell proliferation incubated for 72 hrs by MTT assay", "assay_type": "functional, cell-based"}, "HCT-116": {"test_system": "HCT-116", "test": "Antitumor activity against human HCT-116 cells assessed as inhibition of cell proliferation incubated for 72 hrs by MTT assay", "assay_type": "functional, cell-based", "conditions": "HCT-116, 72 h"}, "[5]": {"target": "T1, DNA topoisomerase 1 (Homo sapiens)", "test": "Poison activity at topoisomerase 1 (unknown origin) assessed as s increase in nicked DNA formation at 1 mM using supercoiled plasmid DNA as substrate at 200 to 400 uM incubated for 35 mins by agarose gel electrophoresis"}, "RKO [6]": {"test_system": "RKO", "test": "Induction of cell cycle arrest in human RKO cells assessed as ratio of G1/G0 phase at 2 to 8 uM incubated for 24 hrs by flow cytometry (Rvb= 37.57%)", "assay_type": "functional", "conditions": "dose 2-8 µM"}, "HT-29 [7]": {"test_system": "HT-29", "test": "Antiproliferative activity against human HT-29 cells assessed as inhibition of cell proliferation incubated for 24 to 72 hrs by MTT assay", "assay_type": "functional, cell-based", "conditions": "time 24-72 hrs, DDE = dose-dependent effect"}, "HT-29 [8]": {"test_system": "HT-29", "test": "Antiproliferative activity against human HT-29 cells assessed as inhibition of cell colonies at 0.25 to 1 uM incubated for 7 days by crystal violet staining based microscopic analysis", "assay_type": "functional", "conditions": "dose 0.25-1 µM, time 7.0 day"}, "HT-29 [9]": {"test_system": "HT-29", "test": "Induction of apoptosis in human HT-29 cells assessed as viable cells at 2 uM incubated for 24 hr by Annexin-V-FITC/PI staining based flow cytometry (Rvb= 83.5%)", "assay_type": "functional", "conditions": "read-out: Activity"}, "HT-29 [10]": {"test_system": "HT-29", "test": "Induction of apoptosis in human HT-29 cells assessed as late apoptotic cells at 4 uM incubated for 24 hr by Annexin-V-FITC/PI staining based flow cytometry (Rvb=8.60%)", "assay_type": "functional"}, "HT-29 [11]": {"test_system": "HT-29", "test": "Induction of apoptosis in human HT-29 cells assessed as late apoptotic cells at 8 uM incubated for 24 hr by Annexin-V-FITC/PI staining based flow cytometry (Rvb=8.60%)", "assay_type": "functional"}, "HT-29 [12]": {"test_system": "HT-29", "test": "Induction of apoptosis in human HT-29 cells assessed as necrotic cells at 8 uM incubated for 24 hr by Annexin-V-FITC/PI staining based flow cytometry (Rvb=1.67%)", "assay_type": "functional"}, "RKO [13]": {"test_system": "RKO", "test": "Induction of apoptosis in human RKO cells assessed as viable cells at 3 uM incubated for 24 hr by Annexin-V-FITC/PI staining based flow cytometry (Rvb= 87.9%)", "assay_type": "functional", "conditions": "read-out: Activity"}, "RKO [14]": {"test_system": "RKO", "test": "Induction of apoptosis in human RKO cells assessed as late apoptotic cells at 9 uM incubated for 24 hr by Annexin-V-FITC/PI staining based flow cytometry (Rvb= 4.49%)", "assay_type": "functional"}, "HT-29 [15]": {"test_system": "HT-29", "test": "Induction of apoptosis in human HT-29 cells assessed as increase in intracellular ROS level at 2 to 8 uM for 24 hrs by DCFH-DA staining-based flow cytometric analysis", "assay_type": "functional, cell-based", "conditions": "dose 2-8 µM"}, "RKO [16]": {"test_system": "RKO", "test": "Induction of apoptosis in human RKO cells assessed as increase in intracellular ROS level at 3 to 9 uM for 24 hrs by DCFH-DA staining-based flow cytometric analysis", "assay_type": "functional, cell-based", "conditions": "dose 3-9 µM"}, "HT-29 [17]": {"test_system": "HT-29", "test": "Induction of apoptosis in human HT-29 cells assessed as increase in cleaved caspase-3 protein level at 2 to 8 uM incubated for 24 hrs by western blot analysis", "assay_type": "functional, cell-based", "conditions": "dose 2-8 µM"}, "HT-29 [18]": {"test_system": "HT-29", "test": "Induction of apoptosis in human HT-29 cells assessed as increase in cleaved caspase-9 protein level at 2 to 8 uM incubated for 24 hrs by western blot analysis", "assay_type": "functional, cell-based", "conditions": "dose 2-8 µM"}, "RKO [19]": {"test_system": "RKO", "test": "Induction of apoptosis in human RKO cells assessed as increase in Bax protein level at 3 to 9 uM incubated for 24 hrs by western blot analysis", "assay_type": "functional, cell-based", "conditions": "dose 3-9 µM"}, "RKO [20]": {"test_system": "RKO", "test": "Induction of apoptosis in human RKO cells assessed as decrease in Bcl-2 protein level at 3 to 9 uM incubated for 24 hrs by western blot analysis", "assay_type": "functional, cell-based", "conditions": "dose 3-9 µM"}, "[21]": {"test": "Cmax in Sprague-Dawley rat at 30 mg/kg, po and measured upto 12 hrs by LC-MS analysis", "assay_type": "ADME, organism-based", "parameters": "time < 12 hrs, dose 30 mg/kg, route po", "conditions": "in vivo"}, "[22]": {"test": "Cmax in Sprague-Dawley rat at 100 mg/kg, po and measured upto 24 hrs by LC-MS analysis", "assay_type": "ADME, organism-based", "parameters": "time < 24 hrs, dose 100 mg/kg, route po", "conditions": "in vivo"}, "[23]": {"test": "Half life in Sprague-Dawley rat at 30 mg/kg, po and measured upto 12 hrs by LC-MS analysis", "assay_type": "ADME, organism-based", "conditions": "in vivo"}, "HT-29 [24]": {"test_system": "HT-29", "test": "Antitumor activity against human HT-29 cells xenografted in BALB/c mouse assessed as inhibition of tumor growth at 30 mg/kg, ip bid and measured after 14 days by vernier caliper method", "assay_type": "functional", "conditions": "HT-29, 336 h, time 14 day, read-out: TGI"}, "HT-29 [25]": {"test_system": "HT-29", "test": "Antitumor activity against human HT-29 cells xenografted in BALB/c mouse assessed as tumor necrosis at 15 to 30 mg/kg, ip bid for 14 days by hematoxylin-eosin staining analysis", "assay_type": "functional, organism-based", "conditions": "dose 15-30 mg/kg, time 14.0 day"}}, "note": "Active and inactive are the calls of the source. No cut-off for these calls is given here.", "data": [{"compound": "Cc1c(Cl)cccc1Nc1ccccc1C(=O)Nc1ccc(N2CCNCC2)cc1", "values": [{"measurement": "inhibition", "setting": "[1]", "value": 69, "unit": "%"}, {"measurement": "inhibition", "setting": "[2]", "value": 53.2, "unit": "%"}, {"measurement": "IC50", "setting": "HT-29 [3]", "value": 1.48, "unit": "µM"}, {"measurement": "IC50", "setting": "RKO [4]", "value": 2.06, "unit": "µM"}, {"measurement": "IC50", "setting": "LoVo", "value": 4.89, "unit": "µM"}, {"measurement": "IC50", "setting": "HCT-116", "value": 8.42, "unit": "µM"}, {"measurement": "Activity", "setting": "[5]", "value": "Active"}, {"measurement": "Activity", "setting": "RKO [6]", "value": 76.99, "unit": "%"}, {"measurement": "Activity", "setting": "HT-29 [7]", "value": "Dde"}, {"measurement": "Activity", "setting": "HT-29 [8]", "value": "Active"}, {"measurement": "viability at 2 µM", "setting": "HT-29 [9]", "value": 82.6, "unit": "%"}, {"measurement": "Activity", "setting": "HT-29 [10]", "value": 14, "unit": "%"}, {"measurement": "Activity", "setting": "HT-29 [11]", "value": 26.1, "unit": "%"}, {"measurement": "Activity", "setting": "HT-29 [12]", "value": 1.05, "unit": "%"}, {"measurement": "viability at 3 µM", "setting": "RKO [13]", "value": 88, "unit": "%"}, {"measurement": "Activity", "setting": "RKO [14]", "value": 11.2, "unit": "%"}, {"measurement": "Activity", "setting": "HT-29 [15]", "value": "Active"}, {"measurement": "Activity", "setting": "RKO [16]", "value": "Active"}, {"measurement": "Activity", "setting": "HT-29 [17]", "value": "Active"}, {"measurement": "Activity", "setting": "HT-29 [18]", "value": "Active"}, {"measurement": "Activity", "setting": "RKO [19]", "value": "Active"}, {"measurement": "Activity", "setting": "RKO [20]", "value": "Active"}, {"measurement": "Cmax", "setting": "[21]", "value": 1600, "unit": "ng/mL"}, {"measurement": "Cmax", "setting": "[22]", "value": 2000, "unit": "ng/mL"}, {"measurement": "half-life", "setting": "[23]", "value": 4.27, "unit": "h"}, {"measurement": "inhibition in vivo at 30 mg/kg", "setting": "HT-29 [24]", "value": 57.9, "unit": "%"}, {"measurement": "Activity", "setting": "HT-29 [25]", "value": "Active"}]}]}
